Measurements published in PubChem BioAssay AID2305 (GlaxoSmithKline (GSK), 2010).
Values joined by “and” are separate entries in the source; they are usually repeats but may differ in a detail not shown here. Identical values can stand only once.

What follows are compounds tested on P. falciparum 3D7 growth, pLDH absorbance (assay: P. falciparum 3D7 growth inhibition, dose response, strain 3D7 (AID 2305)).

Question: With `c1cc(-c2ccc(CNC3CCOCC3)cc2)cc(-c2nc3ccccc3[nH]2)c1` as the compound, how does the IC50 read?
Answer: 770 nM

Question: For `CC(=O)Nc1nc(C(=O)Nc2cccc(-c3ccc(-c4nc5ccc(F)cc5[nH]4)cc3)c2)cs1`, which IC50 is on record?
Answer: 290 nM

Question: `CCc1cc(I)c2c(c1)C(NCCCNc1cc(=O)c3ccccc3[nH]1)CCN2` (centres undefined) was tested. Which IC50 did it give?
Answer: 890 nM

Question: How did the IC50 turn out when `Cc1cc(N[C@@H](CC(C)C)C(=O)NCCc2ccccc2)nc(NCCc2cccs2)n1` was run?
Answer: 1200 nM

Question: `Fc1ccc2nc(-c3cccc(-c4ccc(CN5CCN(c6ccncc6)CC5)cc4)c3)[nH]c2c1` was tested. Which IC50 did it give?
Answer: 210 nM

Question: Which IC50 does the source give for `COc1ccc(CN(C)CCCc2ccc(NC(=O)c3cccc4c(=O)c5cccc(F)c5[nH]c34)cc2)cc1OC` here?
Answer: 940 nM

Question: With `CCCCCCCN1CC[C@@H](CCCc2ccnc3ccc(OCCCCNC(N)=O)cc23)[C@@H](CC)C1` as the compound, how does the IC50 read?
Answer: 840 nM

Question: For `Cc1csc(-c2nonc2NC(=O)COc2ccccc2C(C)C)n1`, which IC50 is on record?
Answer: 550 nM

Question: For `COc1ccc2ncc(Cl)c(CCN3CCC(NCc4ccc5c(n4)NC(=O)CS5)CC3)c2c1`, which IC50 is on record?
Answer: 590 nM

Question: Which IC50 does the source give for `FC(F)(F)c1ccc2nc(-c3cccc(-c4ccc(CNCc5cnn(-c6ccccc6)n5)cc4)c3)[nH]c2c1` here?
Answer: 1330 nM

Question: With `CC(=O)Nc1ccc(CN2CCC(NC(=O)c3ccc(-c4cccc(F)c4)s3)CC2)cc1` as the compound, how does the IC50 read?
Answer: 1430 nM

Question: With `c1ccc2c(Nc3ccc(Cc4ccc(Nc5c6ccccc6nc6ccccc56)cc4)cc3)c3ccccc3nc2c1` as the compound, how does the IC50 read?
Answer: 160 nM

Question: For `CC(=O)c1ccc(-n2ccnc2)cc1`, which IC50 is on record?
Answer: 850 nM

Question: With `CCC(CC)n1c(COC)cc2c3c(N)nc(N)nc3ccc21` as the compound, how does the IC50 read?
Answer: 10 nM

Question: `CCNC(=O)Nc1cccc(-c2cccc(-c3nc4c(C)cccc4[nH]3)c2)c1` was tested. Which IC50 did it give?
Answer: 1040 nM

Question: `Cc1cccc2[nH]c(-c3ccc(-c4ccc(CNCCCN5CCCC5=O)cc4)s3)nc12` was tested. Which IC50 did it give?
Answer: 750 nM

Question: `Cc1c(C)n(Cc2ccccc2)c2ncnc(OC3CCN(CC(=O)NCC4CC4)CC3)c12` was tested. Which IC50 did it give?
Answer: 1120 nM

Question: `CCc1cc(NC(=O)Nc2ccnc3ccccc23)ccc1OC` was tested. Which IC50 did it give?
Answer: 140 nM

Question: How did the IC50 turn out when `O=C(Nc1cccc(C(F)(F)F)c1)c1cccc(S(=O)(=O)NCC2CCCN2CC2CCCCC2)c1` (centres undefined) was run?
Answer: 1110 nM

Question: Which IC50 does the source give for `COc1ccc(C(=O)NC(Nc2ccc([N+](=O)[O-])cc2)C(Cl)(Cl)Cl)cc1` (centres undefined) here?
Answer: 1070 nM

Question: With `CCOC(=O)C1=C(C)NC2=C(C(=O)C(C(=O)OC)C(C)C2)C1c1cc(Br)c(OCC)c(OC)c1` (centres undefined) as the compound, how does the IC50 read?
Answer: 700 nM

Question: For `COc1ccc2nccc([C@@H](O)CN3CCC(NC(=O)c4ccc5cc[nH]c5c4)CC3)c2c1`, which IC50 is on record?
Answer: 970 nM

Question: How did the IC50 turn out when `C=CCOc1ccc(C(=O)Nc2nonc2-c2ccc(OC)c(OC)c2)cc1` was run?
Answer: 640 nM

Question: With `COC(=O)c1cccc(N2CCN(CCCNC(=O)/C(=C/C=C/c3cc4cc(Cl)c(Cl)cc4[nH]3)OC)CC2)c1` as the compound, how does the IC50 read?
Answer: 670 nM

Question: With `Cc1nccn1Cc1cc(C(C)(C)C)c(O)c(C(C)(C)C)c1` as the compound, how does the IC50 read?
Answer: 790 nM

Question: With `CC(C)(CNC(=O)C1CCN(Cc2ccoc2)CC1)c1nc(-c2ccc(Cl)c(O)c2)c(-c2ccncc2)[nH]1` as the compound, how does the IC50 read?
Answer: 870 nM

Question: `CCCN1CCN(CCCNC(=O)c2cc3c(Cl)nc4ccc(C)cc4c3s2)CC1` was tested. Which IC50 did it give?
Answer: 800 nM

Question: For `COc1ccc(CCCCN2C(=O)C(c3ccccc3)(c3ccccc3)N=C2N)cc1`, which IC50 is on record?
Answer: 860 nM

Question: How did the IC50 turn out when `CCN(CC)Cc1cccc(-c2cc3c(-c4ccc(C(=O)O)c(C(C)C)c4)ccnc3[nH]2)c1OC` was run?
Answer: 320 nM

Question: For `CC(Cc1ccc(NC(=O)[C@H](C)NCCc2cccc(Cl)c2)cc1)NCCc1cccc(Cl)c1` (some centres undefined), which IC50 is on record?
Answer: 660 nM

Question: For `COc1ccc(N2C(=O)c3c(c4ccccc4n3C)C2c2ccccc2O)cc1` (centres undefined), which IC50 is on record?
Answer: 120 nM

Question: For `O=c1c2sc(-c3ccc(Cl)cc3)cc2ncn1Cc1ccc(OCCN2CCCC2)c2ccccc12`, which IC50 is on record?
Answer: 250 nM

Question: With `Cc1cc(NN=Cc2cccc(F)c2)c2cc(F)ccc2n1` as the compound, how does the IC50 read?
Answer: 480 nM

Question: With `Cc1cnccc1/C=C/c1cccc(OCCCN2CCc3ccc(S(C)(=O)=O)cc3CC2)c1` as the compound, how does the IC50 read?
Answer: 610 nM

Question: Which IC50 does the source give for `O=C(Nc1cccc2ccccc12)N1CCc2cc3nccc(N4CCN5CCC[C@H]5C4)c3cc21` here?
Answer: 890 nM

Question: With `S=C(NCCc1ccc(Cl)cc1)N1CCC(CN2CCC(c3c[nH]c4ccccc34)CC2)CC1` as the compound, how does the IC50 read?
Answer: 1000 nM

Question: `CCOC(=O)c1ccc(N2CCN(c3cc(C)ccc3C)CC2)c(NC(=O)Nc2ccc(Cl)c(Cl)c2)c1` was tested. Which IC50 did it give?
Answer: 710 nM

Question: Which IC50 does the source give for `OC(CNc1ccnc(Nc2cccc(CCN3CCOCC3)c2)n1)c1ccccc1` (centres undefined) here?
Answer: 590 nM

Question: `COc1ccccc1C(=O)Nc1cccc(N2CCC(NCc3ccc(-n4cccn4)cc3)CC2)c1` was tested. Which IC50 did it give?
Answer: 1190 nM

Question: For `COc1ccc(Cc2nc3c(n2C(C)=O)SC(c2ccc(Cl)c(Cl)c2)=NN3C(C)=O)cc1`, which IC50 is on record?
Answer: 810 nM

Question: How did the IC50 turn out when `O=C(Nc1ccc(OC2CCN(Cc3ccccc3)CC2)c(Cl)c1)c1cccs1` was run?
Answer: 310 nM

Question: For `Cc1cccc2[nH]c(-c3cccc(-c4ccc(NC(=O)c5ccoc5)cc4)c3)nc12`, which IC50 is on record?
Answer: 700 nM

Question: How did the IC50 turn out when `Nc1nccc2ccc(-c3ccsc3)cc12` was run?
Answer: 330 nM

Question: `c1ccc(-c2[nH]ncc2Nc2ccnc3ccccc23)nc1` was tested. Which IC50 did it give?
Answer: 820 nM

Question: Which IC50 does the source give for `CN1CCc2ccc(NC(=O)Nc3cccc([N+](=O)[O-])c3)cc2C1` here?
Answer: 1100 nM

Question: Which IC50 does the source give for `CC1CCN(Cc2ccc(NC(=O)c3cc4ccc5cccnc5c4[nH]3)cc2)CC1` here?
Answer: 780 nM

Question: How did the IC50 turn out when `Cc1cc(N2Cc3ccccc3C2)nc(Nc2cccc(C#N)c2)n1` was run?
Answer: 170 nM

Question: `CCN(CC1CCN(CC2(O)CCOCC2)CC1)c1cc(C)nc(Nc2ccc(Cl)cc2)n1` was tested. Which IC50 did it give?
Answer: 410 nM

Question: Which IC50 does the source give for `Cn1nc(-c2ccc(S(=O)(=O)NC3CCC(CN4CCC(c5c[nH]c6ccccc56)CC4)CC3)s2)cc1C(F)(F)F` (centres undefined) here?
Answer: 840 nM and 820 nM
